Where “and” joins values, the source holds several entries; their conditions need not be identical. Equal values may be shown once.

Common to all, as to assay type: cell-based, human
One experiment deals with Vγ9Vδ2 T cells. As to the kind of experiment: Activation / CD107 degranulation of expanded Vγ9Vδ2 T cells (phosphoantigen or anti-CD3 stimulation). To be noted: increasing doses of BrHPP alone. As for the experimental part:
We used for γδ T cells labelling in purity test after expansion, anti-CD3 PE-Cy7 and anti-Vδ2 FITC mAb (BD Pharmingen). For CD277 characterisation in different subsets PBMC were incubated with the following antibodies and molecules: anti-CD3 PE-Cy5 (BD Pharmingen), anti-CD4 PB (BD Pharmingen), anti-CD8 PB (BD Pharmingen), anti-Vδ2 FITC (BD Pharmingen), anti-CD27 APC ALEXA FLUOR® 750 (CALTAG Laboratory), anti-CCR7 PECy7 (BD Pharmingen), anti-CD28 PE (Beckman Coulter), anti-CD45RA ECD (Beckman Coulter), LIVE/DEAD® Fixable Dead Cell Stain Kit (L34957, Invitrogen) and anti-CD277 labelled with ALEXA FLUOR® 647 (Protein labelling Kit ALEXA FLUOR® 647, Molecular Probes, Invitrogen). […] All samples were measured on FACSCANTO® or FACSARIA® flow cytometers (BD Biosciences) using FACSDIVA® software. […]
PBMC were plated and stimulated as described in the paragraph: cell lines and expansion of γδ T cells, except cells were stimulated with anti-CD277 mAbs (10 μg/ml); or control isotypes (10 μg/ml); and with or without BrHPP at different concentrations. […] Percentages of Vγ9Vδ2 were measured the first day and the last day of culture as described above. […] Activation of degranulation was measured by CD107 labelling assay as described above.

Experiment [1] concerns primary AML blasts. As to the kind of experiment: Chromium release assay, lysis of primary AML blasts by Vγ9Vδ2 T cells. The settings on record: E:T 30:1; ZOL 45 μM O/N, 20.1 mAb 10 μg/ml, BrHpp 2 μM. As for the experimental part: (§1) Effector γδ T cells were established and maintained as previously described^28. PBMC from HV were stimulated with ZOL (1 μm) and rhlL-2 (200 IU/ml) at Day 0. From Day 5, rhIL-2 was renewed every two days and cells were kept at 1.5×10^6/m1 for 15 days. NK cells were isolated using EASYSEP® Human NK cell enrichment kit (StemCell Technologies). The purity of γδ T cells and NK cells was determined by flow cytometry and respectively greater than 80% and 98%. The Burkitt lymphoma cell line, DAUDI, the human AML cell line, U937, and the erythroleukemic cell line, K562, were obtained from the American Type Culture Collection and cultured (0.5×10^6/ml) in RPMI 1640 medium with 10% FCS. BTN3A Knock-down HEK293FT cells (sh #284; clone #30) were provided by E.Scotet (Inserm U892, Nantes), cultured and transfected with BTN3A1, BTN3A2, BTN3A3 mutated cDNA-containing plasmids, as described^23.
(§2) 0.5×10^6 target cells were incubated with 50 pCi of ^51Cr (Perkin-Elmer) for AML blasts and 10 pCi for DAUDI and K562 cells for 90 minutes and mixed with effector cells in a Effector:Target (E:T) ratio of […]. After 4 hours of incubation at 37° C., 50p1 supernatant of each sample was transferred in LUMA® plates and radioactivity was determined by a gamma counter. The percentage of specific lysis was calculated using the formula [(experimental−spontaneous release/total−spontaneous release)×100] and expressed as the mean of triplicate.

The subject of experiment [2] is primary AML blasts. In words: Chromium release assay, lysis of primary AML blasts by NK cells. As for the experimental part:
as §1, with “BTN3A Knock-down HEK293FT cells (sh #284; clone #30) were provided by E.Scotet (Inserm U892, Nantes), cultured and transfected with BTN3A1, BTN3A2, BTN3A3 mutated cDNA-containing plasmids, as described^23.” left out
as §2

In experiment [3] the test system is immature dendritic cells (iDC). In words: Apoptosis detection (Annexin V), survival of iDC. The settings on record: plastic-coated mAb or GM-CSF, 72-h culture, representative value and range of five experiments. As for the experimental part: (§3) Blood samples were obtained from 5 healthy volunteers enrolled among the staff members, after informed consent. Monocytes were separated from peripheral blood mononuclear cells, and isolated using the MACS CD14 isolation kit (Miltenyi Biotech, Auburn, Calif. USA). Monocytes were cultured for 5 days with 200 ng/ml of recombinant human GM-CSF and 10 ng/ml recombinant human IL-4 (Schering-Plough Research Institute). These cells were termed immature dendritic cells (iDC). To achieve the stimulation, monocytes and iDC were cultured with 10 ng/ml of LPS, ligand for TLR4, 30 μg/ml of 8848 (Sigma-Aldrich, Milano, Italy), ligand for TLR7/8 and with […] of poly (I:C) (Sigma-Aldrich), ligand for TLR3, and were harvested after 48 h. The cells were cultured in RPMI 1640 supplemented with 10% heat-inactivated FCS, 5 mM L-glutamine and 50 IU/ml penicillin-streptomycin (from here on referred to as complete medium).
(§4) Monocytes and iDC were cultured on plastic coated with anti-BT3 mAb (clone 20.1) or with isotype-matched irrelevant mAb. As control, the cells were stimulated with 20 ng/ml recombinant human GM-CSF (Schering-Plough Research Institute). After three days, cells were harvested, stained with Annexin V-FITC (Bender MedSystems, Wien, Austria) and analysed by flow cytometry.

Another experiment relates to monocytes. As to the kind of experiment: Apoptosis detection (Annexin V), survival of monocytes. The settings on record: plastic-coated mAb or 20 ng/ml GM-CSF, 3 days (72 hours), Annexin V; representative value and range of five experiments. As for the experimental part: as §3, §4

As for `CC(O)(CBr)CCOP(=O)(O)OP(=O)(O)O` (centres unmarked) [BrHPP], the CD107 expression entry with Vγ9Vδ2 T cells was “up to 40%”. With `O=P(O)(O)C(O)(Cn1ccnc1)P(=O)(O)O` [ZOL, Zoledronate, reference compound], the “enhancement of Vγ9Vδ2 T cells lysis of AML blasts compared with BrHpp” value in the experiment on primary AML blasts [1] is on record as “significantly more efficient”. Also, in the experiment with primary AML blasts [2], the “NK cells-mediated AML blasts lysis” value is “no effect”. With “GM-CSF: recombinant human GM-CSF, survival control [reference compound]”, in experiment [3], the “healthy-vital (surviving) iDC” value is 85.97% and 71.01-85.97%. In addition, the “monocytes survived in the absence of endogenous survival factors” value in the experiment on monocytes is 81.22% and 60.41-83%.
